CC(C)C(N)=O
Details | solubility (mole fraction)
in 2-butanone, 273.15 K | 0.0397
in 2-butanone, 279.15 K | 0.045
in 2-butanone, 284.15 K | 0.0497
in 2-butanone, 289.15 K | 0.0548
in 2-butanone, 293.75 K | 0.0597
in 2-butanone, 299.05 K | 0.0657
in 2-butanone, 303.75 K | 0.0713
in 2-butanone, 308.55 K | 0.0773
in 2-butanone, 313.65 K | 0.0841
in 2-butanone, 318.25 K | 0.0904
in 2-butanone, 323.95 K | 0.0988
in THF, 273.15 K | 0.0439
in THF, 279.15 K | 0.0514
in THF, 284.15 K | 0.0585
in THF, 289.15 K | 0.0661
in THF, 293.75 K | 0.0741
in THF, 299.05 K | 0.0837
in THF, 303.75 K | 0.093
in THF, 308.55 K | 0.103
in THF, 313.65 K | 0.115
in THF, 318.25 K | 0.126
in THF, 323.95 K | 0.141
in acetone, 273.15 K | 0.00931
in acetone, 279.15 K | 0.0135
in acetone, 283.95 K | 0.018
in acetone, 289.15 K | 0.0244
in acetone, 293.85 K | 0.0317
in acetone, 299.15 K | 0.0422
in acetone, 303.45 K | 0.0528
in acetone, 309.05 K | 0.0703
in acetone, 313.25 K | 0.0857
in acetone, 319.15 K | 0.114
in acetone, 324.15 K | 0.143
in acetonitrile, 273.15 K | 0.0122
in acetonitrile, 279.15 K | 0.0166
in acetonitrile, 283.95 K | 0.021
in acetonitrile, 289.15 K | 0.0271
in acetonitrile, 293.85 K | 0.0335
in acetonitrile, 299.15 K | 0.0424
in acetonitrile, 303.45 K | 0.051
in acetonitrile, 309.05 K | 0.0645
in acetonitrile, 313.25 K | 0.0766
in acetonitrile, 319.15 K | 0.0961
in acetonitrile, 324.15 K | 0.116
in chloroform, 273.15 K | 0.013
in chloroform, 279.15 K | 0.0176
in chloroform, 284.15 K | 0.0222
in chloroform, 289.15 K | 0.0282
in chloroform, 294.15 K | 0.0352
in chloroform, 299.15 K | 0.0436
in chloroform, 303.75 K | 0.0529
in chloroform, 309.15 K | 0.0656
in chloroform, 313.15 K | 0.0769
in chloroform, 319.15 K | 0.0968
in chloroform, 324.75 K | 0.119
in cyclohexanone, 273.15 K | 0.0267
in cyclohexanone, 279.15 K | 0.0333
in cyclohexanone, 284.15 K | 0.0398
in cyclohexanone, 289.15 K | 0.0473
in cyclohexanone, 293.75 K | 0.0551
in cyclohexanone, 299.05 K | 0.0653
in cyclohexanone, 303.75 K | 0.0756
in cyclohexanone, 308.55 K | 0.0873
in cyclohexanone, 313.65 K | 0.101
in cyclohexanone, 318.25 K | 0.115
in cyclohexanone, 323.95 K | 0.135
in cyclopentanone, 273.15 K | 0.0441
in cyclopentanone, 279.15 K | 0.0544
in cyclopentanone, 284.15 K | 0.0642
in cyclopentanone, 289.15 K | 0.0754
in cyclopentanone, 293.75 K | 0.0871
in cyclopentanone, 299.05 K | 0.102
in cyclopentanone, 303.75 K | 0.117
in cyclopentanone, 308.55 K | 0.134
in cyclopentanone, 313.65 K | 0.154
in cyclopentanone, 318.25 K | 0.174
in cyclopentanone, 323.95 K | 0.201
in ethanol, 273.15 K | 0.0474
in ethanol, 279.15 K | 0.0599
in ethanol, 283.95 K | 0.0715
in ethanol, 289.15 K | 0.086
in ethanol, 293.85 K | 0.102
in ethanol, 299.15 K | 0.121
in ethanol, 303.45 K | 0.139
in ethanol, 309.05 K | 0.166
in ethanol, 313.25 K | 0.189
in ethanol, 319.15 K | 0.226
in ethanol, 324.15 K | 0.26
in ethyl formate, 273.15 K | 0.0121
in ethyl formate, 279.15 K | 0.0153
in ethyl formate, 284.15 K | 0.0186
in ethyl formate, 289.15 K | 0.0223
in ethyl formate, 293.75 K | 0.0263
in ethyl formate, 299.05 K | 0.0316
in ethyl formate, 303.75 K | 0.0371
in ethyl formate, 308.55 K | 0.0432
in ethyl formate, 313.65 K | 0.0508
in ethyl formate, 318.25 K | 0.0583
in ethyl formate, 323.95 K | 0.069
in isobutanol, 273.15 K | 0.0521
in isobutanol, 279.15 K | 0.0633
in isobutanol, 284.15 K | 0.0737
in isobutanol, 289.15 K | 0.0855
in isobutanol, 293.75 K | 0.0976
in isobutanol, 299.05 K | 0.113
in isobutanol, 303.75 K | 0.129
in isobutanol, 308.55 K | 0.146
in isobutanol, 313.65 K | 0.166
in isobutanol, 318.25 K | 0.186
in isobutanol, 323.95 K | 0.213
in isopropanol, 273.15 K | 0.0245
in isopropanol, 279.15 K | 0.0339
in isopropanol, 283.95 K | 0.0433
in isopropanol, 289.15 K | 0.0561
in isopropanol, 293.85 K | 0.0702
in isopropanol, 299.15 K | 0.0901
in isopropanol, 303.45 K | 0.109
in isopropanol, 309.05 K | 0.139
in isopropanol, 313.25 K | 0.166
in isopropanol, 319.15 K | 0.211
in isopropanol, 324.15 K | 0.257
in methanol, 273.15 K | 0.0844
in methanol, 279.15 K | 0.0988
in methanol, 283.95 K | 0.112
in methanol, 289.15 K | 0.127
in methanol, 293.85 K | 0.142
in methanol, 299.15 K | 0.161
in methanol, 303.45 K | 0.177
in methanol, 309.05 K | 0.201
in methanol, 313.25 K | 0.219
in methanol, 319.15 K | 0.247
in methanol, 324.15 K | 0.274
in methyl acetate, 273.15 K | 0.03
in methyl acetate, 279.15 K | 0.0343
in methyl acetate, 284.15 K | 0.0381
in methyl acetate, 289.15 K | 0.0422
in methyl acetate, 293.75 K | 0.0463
in methyl acetate, 299.05 K | 0.0513
in methyl acetate, 303.75 K | 0.056
in methyl acetate, 308.55 K | 0.0611
in methyl acetate, 313.65 K | 0.0668
in methyl acetate, 318.25 K | 0.0722
in methyl acetate, 323.95 K | 0.0794
in n-butanol, 273.15 K | 0.0542
in n-butanol, 279.15 K | 0.0653
in n-butanol, 284.15 K | 0.0756
in n-butanol, 289.15 K | 0.0873
in n-butanol, 293.75 K | 0.0993
in n-butanol, 299.05 K | 0.115
in n-butanol, 303.75 K | 0.13
in n-butanol, 308.55 K | 0.146
in n-butanol, 313.65 K | 0.165
in n-butanol, 318.25 K | 0.184
in n-butanol, 323.95 K | 0.21
in n-propanol, 273.15 K | 0.0352
in n-propanol, 279.15 K | 0.047
in n-propanol, 283.95 K | 0.0585
in n-propanol, 289.15 K | 0.0741
in n-propanol, 293.85 K | 0.0909
in n-propanol, 299.15 K | 0.113
in n-propanol, 303.45 K | 0.135
in n-propanol, 309.05 K | 0.169
in n-propanol, 313.25 K | 0.198
in n-propanol, 319.15 K | 0.245
in n-propanol, 324.15 K | 0.294

Source: BigSolDB 2.1
